Laboratory results: US11510962B2, “Manufacture of degarelix” (Ferring B.V., priority 2012, dated 2022)
Square brackets hold non-standard residues; d marks the D form. Peptide text beside a SMILES is read from it. * marks the point of attachment. dPhe(4-NHCONH2) = NC(=O)Nc1ccc(C[C@@H](N)C(=O)O)cc1; Dihydroorotyl(S) = O=C1C[C@@H](C(=O)*)NC(=O)N1; dPhe(4-Cl) = N[C@H](Cc1ccc(Cl)cc1)C(=O)O; Phe(4-NH2) = Nc1ccc(C[C@H](N)C(=O)O)cc1; d2Nal = N[C@H](Cc1ccc2ccccc2c1)C(=O)O; Lys(iPr) = CC(C)NCCCC[C@H](N)C(=O)O; d3Pal = N[C@H](Cc1cccnc1)C(=O)O

Experiments:
[1] = De-aggregation experiments with acetic acid: final optical density; format: physicochemical
Procedure: (§1) During the de-aggregation studies the temperature was set to 5, 20, 25, or 35° C. The concentration of degarelix drug substance was 5, 15, 25, or 35 mg/ml. The concentration of acetic acid is 13, 15, 18, 20, 22, 26, 30, 35 or 40%. Optical Density (OD): A sample (1 ml) should be taken at the end of each experiment for measurement of the final optical density. De-aggregation Experiment Protocol, total volume 20 or 69 ml: • 1. Weigh the required amount of stock solution into a beaker. Equilibrate to the desired temperature • 2. Weigh the required amount of acetic acid (100%) into a beaker • 3. Mix the acetic acid (100%) with 3 or 10 ml of milli-Q water and equilibrate to the desired temperature • 4. Mix the degarelix stock solution with the acetic acid/milli-Q water solution • 5. Fill milli-Q water up to 20 or 69 ml • 6. Mix thoroughly • 7. Take samples for viscosity and optical density as described above. Note the appearance of the solution during the experiment

[2] = target: GnRH receptors in the pituitary (Homo sapiens, UniProt P30968); details: prostate cancer patients; literature; cited from earlier work
[3] = De-aggregation experiments with acetic acid: viscosity of degarelix stock solution; format: physicochemical
Procedure: as §1, with “Determination of the viscosity of the drug substance and drug product solution is based on the current edition of Ph. Eur. and USP procedure using a rotating viscometer equipped with a cone-plate measuring system with D=60 mm and 1°. The shear rate is increased from 0 to 500 s in 20 steps, using a controlled rate (CR) rotation step program at a constant temperature of 20±0.2° C., making certain that the system reaches equilibrium before the viscosity is recorded at a shear rate of 500 s^−1. During” for “During”, “Viscosity: Take out 1.2 ml” for “Optical Density (OD): A sample (1 ml) should be taken”, “T=1, 60, 120, and 240 min.” for “the end of each experiment for measurement of the final optical density.”

[4] = in vivo
[5] = In-vitro release profile (IVD assay) of degarelix vials reconstituted with WFI+Tween 20; format: physicochemical; details: 40 mg/ml degarelix; Tween 20 at 1, 0.5, 0.25 mg/ml; control WFI
Procedure: Tween 20 concentrations tested:
1 mg/ml; 0.5 mg/ml; 0.25 mg/ml;

[6] = Reconstitution of degarelix vials with WFI/surfactant solution: OD (absorbance) at 350 nm; format: physicochemical; details: vials reconstituted to 60 mg/ml degarelix, surfactant 1 mg/ml (0.1%) in WFI, 30 min, 60 min, 120 min, 24 hours
Procedure: Procedure: • Degarelix batch reconstituted using WFI (as control) and using WFI containing the surfactants. The vials are reconstituted to 60 mg/ml degarelix.

[7] = 5 °C, degarelix 5 mg/ml, AcOH 40%
[8] = 5 °C, degarelix 25 mg/ml, AcOH 13%
[9] = 5 °C, degarelix 25 mg/ml, AcOH 15%
[10] = 5 °C, degarelix 25 mg/ml, AcOH 20%
[11] = 5 °C, degarelix 35 mg/ml, AcOH 26%
[12] = 20 °C, degarelix 15 mg/ml, AcOH 30%
[13] = 25 °C, degarelix 25 mg/ml, AcOH 20%
[14] = 35 °C, degarelix 25 mg/ml, AcOH 15%
[15] = 35 °C, degarelix 25 mg/ml, AcOH 18%
[16] = 35 °C, degarelix 25 mg/ml, AcOH 20%
[17] = 35 °C, degarelix 35 mg/ml, AcOH 22%
[18] = 35 °C, degarelix 35 mg/ml, AcOH 26%
[19] = 35 °C, degarelix 35 mg/ml, AcOH 30%
[20] = 35 °C, degarelix 35 mg/ml, AcOH 35%

Chain of GnRH receptors in the pituitary (P30968 whole entry): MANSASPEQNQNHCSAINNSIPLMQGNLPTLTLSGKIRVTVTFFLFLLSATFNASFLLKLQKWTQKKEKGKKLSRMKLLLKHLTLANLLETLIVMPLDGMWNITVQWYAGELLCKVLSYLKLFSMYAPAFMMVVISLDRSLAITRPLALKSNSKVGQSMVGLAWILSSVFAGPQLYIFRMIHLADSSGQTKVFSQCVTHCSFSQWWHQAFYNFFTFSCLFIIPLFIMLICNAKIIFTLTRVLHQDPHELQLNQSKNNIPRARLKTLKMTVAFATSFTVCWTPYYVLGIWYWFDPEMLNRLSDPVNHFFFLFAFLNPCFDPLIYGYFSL

Q: With `CC(=O)N[C@H](Cc1ccc2ccccc2c1)C(=O)N[C@H](Cc1ccc(Cl)cc1)C(=O)N[C@H](Cc1cccnc1)C(=O)N[C@@H](CO)C(=O)N[C@@H](Cc1ccc(NC(=O)[C@@H]2CC(=O)NC(=O)N2)cc1)C(=O)N[C@H](Cc1ccc(NC(N)=O)cc1)C(=O)N[C@@H](CC(C)C)C(=O)N[C@@H](CCCCNC(C)C)C(=O)N1CCC[C@H]1C(=O)N[C@H](C)C(N)=O` [Degarelix, D-Alaninamide, N-acetyl-3-(2-naphthalenyl)-D-alanyl-4-chloro-D-phenylaanyl-3-(3-pyridinyl)-D-alanyl-L-seryl-4-[[[(4S)-hexahydro-2,6-dioxo-4-pyrimidinyl]carbonyl]amino]-L-phenylalanyl-4-[(aminocarbonyl)amino]-D-phenylaanyl-L-leucyl-N6-(1-methylethyl)-L-lysyl-L-prolyl-] (Ac-[d2Nal][dPhe(4-Cl)][d3Pal]S[Phe(4-NH2)](Dihydroorotyl(S))[dPhe(4-NHCONH2)]L[Lys(iPr)]P[dA]-NH2) as the compound, how does the “Optical Density Time = 240 min” value [1, 7] read?
A: Its value is 0.00.

Q: And the “Optical Density Time = 240 min” value [1, 8]?
A: Its value is 0.10.

Q: What about the “Optical Density Time = 240 min” value [1, 9] of the same compound?
A: Its value is 0.09.

Q: What about the “Optical Density Time = 240 min” value [1, 10] of the same compound?
A: Its value is 0.06.

Q: What about the “Optical Density Time = 240 min” value [1, 11] of the same compound?
A: The value was 0.08.

Q: And the “Optical Density Time = 240 min” value [1, 12]?
A: Its value is 0.03.

Q: What about the “Optical Density Time = 240 min” value [1, 13] of the same compound?
A: The value was 0.10.

Q: What about the “Optical Density Time = 240 min” value [1, 14] of the same compound?
A: Its value is 0.86.

Q: What about the “Optical Density Time = 240 min” value [1, 15] of the same compound?
A: Its value is 0.07.

Q: What about the “Optical Density Time = 240 min” value [1, 16] of the same compound?
A: Its value is 0.05.

Q: What about the “Optical Density Time = 240 min” value [1, 17] of the same compound?
A: Its value is 0.13.

Q: And the “Optical Density Time = 240 min” value [1, 18]?
A: The value was 0.10.

Q: What about the “Optical Density Time = 240 min” value [1, 19] of the same compound?
A: The value was 0.07.

Q: What about the “Optical Density Time = 240 min” value [1, 20] of the same compound?
A: Its value is 0.08.

Q: And the “testosterone surge or clinical flare” value [2]?
A: The value was “does not cause testosterone surge or clinical flare”.

Q: And the “Viscosity @ 500 Time = 240 min” value [3, 7]?
A: Its value is 1.9 mPas * s.

Q: And the “Viscosity @ 500 Time = 240 min” value [3, 8]?
A: Its value is 2.3 mPas * s.

Q: And the “Viscosity @ 500 Time = 240 min” value [3, 9]?
A: The value was 1.9 mPas * s.

Q: And the “Viscosity @ 500 Time = 240 min” value [3, 10]?
A: The value was 1.7 mPas * s.

Q: And the “Viscosity @ 500 Time = 240 min” value [3, 11]?
A: Its value is 1.9 mPas * s.

Q: And the “Viscosity @ 500 Time = 240 min” value [3, 12]?
A: The value was 1.8 mPas * s.

Q: And the “Viscosity @ 500 Time = 240 min” value [3, 13]?
A: The value was 2.0 mPas * s.

Q: What about the “Viscosity @ 500 Time = 240 min” value [3, 14] of the same compound?
A: Its value is 7.2 mPas * s.

Q: What about the “Viscosity @ 500 Time = 240 min” value [3, 15] of the same compound?
A: Its value is 2.1 mPas * s.

Q: What about the “Viscosity @ 500 Time = 240 min” value [3, 16] of the same compound?
A: Its value is 1.7 mPas * s.

Q: What about the “Viscosity @ 500 Time = 240 min” value [3, 17] of the same compound?
A: Its value is 2.1 mPas * s.

Q: What about the “Viscosity @ 500 Time = 240 min” value [3, 18] of the same compound?
A: The value was 1.9 mPas * s.

Q: And the “Viscosity @ 500 Time = 240 min” value [3, 19]?
A: The value was 2.0 mPas * s.

Q: And the “Viscosity @ 500 Time = 240 min” value [3, 20]?
A: Its value is 2.1 mPas * s.

Q: And the “sustained release from the depot” value [4]?
A: Its value is “sustained release of the active over months”.

Q: For Polysorbate 20 [Tween 20], which in-vitro release profiles [5] is on record?
A: The in-vitro release profiles was “not altered”.

Q: And the “optical density versus control” value [6]?
A: Its value is “reduced the optical density to a level below the control”.
